Measured values as given in patent publication US10617681B2, “1-arylalkyl-4-acylaminopiperidine compounds” (ARIZONA BOARD OF REGENTS ON BEHALF OF THE UNIVERSITY OF …, priority 2014, dated 2020).

How the values were obtained:
α2B(h) [1] = molecular target: T1, α2B(h) (Homo sapiens, UniProt P18089); assay: Cellular functional assay, agonist effect, α2B; format: cell-based
T1 sequence (P18089 1-450): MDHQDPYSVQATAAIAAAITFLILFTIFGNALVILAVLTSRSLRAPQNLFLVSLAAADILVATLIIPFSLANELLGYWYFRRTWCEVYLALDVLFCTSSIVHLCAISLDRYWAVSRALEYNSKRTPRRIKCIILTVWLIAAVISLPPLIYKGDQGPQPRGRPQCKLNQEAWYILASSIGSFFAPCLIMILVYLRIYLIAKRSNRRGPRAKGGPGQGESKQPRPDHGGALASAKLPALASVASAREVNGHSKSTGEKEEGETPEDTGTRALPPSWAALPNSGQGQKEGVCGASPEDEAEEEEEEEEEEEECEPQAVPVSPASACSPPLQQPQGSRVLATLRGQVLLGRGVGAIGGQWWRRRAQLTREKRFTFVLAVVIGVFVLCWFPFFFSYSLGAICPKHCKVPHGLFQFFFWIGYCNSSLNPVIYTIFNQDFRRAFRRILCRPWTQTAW

μ (MOP) [2] = molecular target: T2, μ (MOP) (Homo sapiens, UniProt P35372); assay: Cellular functional assay, antagonist effect, μ (MOP); format: cell-based; settings: antagonist mode
T2 sequence (P35372 whole entry): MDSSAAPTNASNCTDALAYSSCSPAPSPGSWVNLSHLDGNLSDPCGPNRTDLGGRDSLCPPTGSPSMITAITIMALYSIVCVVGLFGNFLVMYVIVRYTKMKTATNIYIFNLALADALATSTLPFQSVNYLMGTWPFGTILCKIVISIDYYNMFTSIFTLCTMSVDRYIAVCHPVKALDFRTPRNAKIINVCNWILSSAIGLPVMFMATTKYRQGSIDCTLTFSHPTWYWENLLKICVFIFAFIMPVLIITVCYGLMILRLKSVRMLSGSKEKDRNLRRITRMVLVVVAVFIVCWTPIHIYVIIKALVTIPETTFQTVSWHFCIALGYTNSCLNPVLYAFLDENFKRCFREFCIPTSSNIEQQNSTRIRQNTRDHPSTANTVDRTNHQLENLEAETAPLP

CYP2B6 = molecular target: T3, CYP2B6 (Homo sapiens, UniProt P20813); assay: CYP inhibition, CYP2B6
T3 sequence (P20813 1-491): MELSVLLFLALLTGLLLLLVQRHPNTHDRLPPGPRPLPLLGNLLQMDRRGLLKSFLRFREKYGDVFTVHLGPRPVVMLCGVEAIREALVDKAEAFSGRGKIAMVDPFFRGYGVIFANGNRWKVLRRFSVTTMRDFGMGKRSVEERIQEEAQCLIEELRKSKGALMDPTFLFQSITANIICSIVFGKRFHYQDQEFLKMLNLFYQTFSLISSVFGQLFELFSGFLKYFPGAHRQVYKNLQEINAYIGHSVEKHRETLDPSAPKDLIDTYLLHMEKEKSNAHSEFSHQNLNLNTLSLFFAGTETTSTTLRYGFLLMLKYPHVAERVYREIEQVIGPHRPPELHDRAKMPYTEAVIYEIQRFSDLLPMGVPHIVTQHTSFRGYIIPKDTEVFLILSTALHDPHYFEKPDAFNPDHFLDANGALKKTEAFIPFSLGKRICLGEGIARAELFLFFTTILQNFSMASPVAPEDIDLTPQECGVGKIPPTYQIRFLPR

P-gp = assay: MDCK permeability assay; settings: dog, MDCK
MDCK = MDCK permeability assay
CYP2C8 = molecular target: T4, CYP2C8 (Homo sapiens, UniProt P10632); assay: CYP inhibition, CYP2C8
T4 sequence (P10632 1-490): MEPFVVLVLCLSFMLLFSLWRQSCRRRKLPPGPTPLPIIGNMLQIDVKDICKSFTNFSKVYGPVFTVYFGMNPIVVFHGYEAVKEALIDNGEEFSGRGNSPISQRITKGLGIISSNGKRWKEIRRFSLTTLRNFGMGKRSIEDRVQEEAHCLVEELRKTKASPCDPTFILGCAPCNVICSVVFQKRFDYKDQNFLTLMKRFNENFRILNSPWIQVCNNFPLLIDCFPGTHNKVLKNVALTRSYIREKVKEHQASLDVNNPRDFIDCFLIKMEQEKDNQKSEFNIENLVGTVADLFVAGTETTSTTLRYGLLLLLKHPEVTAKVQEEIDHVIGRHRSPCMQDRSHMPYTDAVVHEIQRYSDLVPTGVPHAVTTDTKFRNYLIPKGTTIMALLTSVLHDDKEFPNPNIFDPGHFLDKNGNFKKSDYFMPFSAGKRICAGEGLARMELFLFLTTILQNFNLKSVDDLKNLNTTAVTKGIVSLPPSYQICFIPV

κ (KOP) [3] = molecular target: T5, κ (KOP) (Rattus norvegicus, UniProt P34975); assay: Cellular functional assay, antagonist effect, κ (KOP); format: cell-based
T5 sequence (P34975 whole entry): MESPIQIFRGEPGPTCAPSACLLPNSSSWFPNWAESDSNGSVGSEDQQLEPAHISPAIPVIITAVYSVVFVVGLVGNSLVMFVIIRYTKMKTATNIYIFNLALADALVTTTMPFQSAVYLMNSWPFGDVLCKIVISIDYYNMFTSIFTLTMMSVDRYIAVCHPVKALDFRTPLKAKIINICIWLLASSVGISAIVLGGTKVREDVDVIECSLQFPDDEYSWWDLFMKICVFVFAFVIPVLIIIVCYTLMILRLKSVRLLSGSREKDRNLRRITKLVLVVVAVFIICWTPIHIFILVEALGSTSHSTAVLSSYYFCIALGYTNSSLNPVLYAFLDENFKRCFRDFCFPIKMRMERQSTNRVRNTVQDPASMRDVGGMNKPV

hERG = hERG (Homo sapiens, UniProt Q12809); assay: hERG inhibition; format: cell-based
Chain of hERG (Q12809 whole entry): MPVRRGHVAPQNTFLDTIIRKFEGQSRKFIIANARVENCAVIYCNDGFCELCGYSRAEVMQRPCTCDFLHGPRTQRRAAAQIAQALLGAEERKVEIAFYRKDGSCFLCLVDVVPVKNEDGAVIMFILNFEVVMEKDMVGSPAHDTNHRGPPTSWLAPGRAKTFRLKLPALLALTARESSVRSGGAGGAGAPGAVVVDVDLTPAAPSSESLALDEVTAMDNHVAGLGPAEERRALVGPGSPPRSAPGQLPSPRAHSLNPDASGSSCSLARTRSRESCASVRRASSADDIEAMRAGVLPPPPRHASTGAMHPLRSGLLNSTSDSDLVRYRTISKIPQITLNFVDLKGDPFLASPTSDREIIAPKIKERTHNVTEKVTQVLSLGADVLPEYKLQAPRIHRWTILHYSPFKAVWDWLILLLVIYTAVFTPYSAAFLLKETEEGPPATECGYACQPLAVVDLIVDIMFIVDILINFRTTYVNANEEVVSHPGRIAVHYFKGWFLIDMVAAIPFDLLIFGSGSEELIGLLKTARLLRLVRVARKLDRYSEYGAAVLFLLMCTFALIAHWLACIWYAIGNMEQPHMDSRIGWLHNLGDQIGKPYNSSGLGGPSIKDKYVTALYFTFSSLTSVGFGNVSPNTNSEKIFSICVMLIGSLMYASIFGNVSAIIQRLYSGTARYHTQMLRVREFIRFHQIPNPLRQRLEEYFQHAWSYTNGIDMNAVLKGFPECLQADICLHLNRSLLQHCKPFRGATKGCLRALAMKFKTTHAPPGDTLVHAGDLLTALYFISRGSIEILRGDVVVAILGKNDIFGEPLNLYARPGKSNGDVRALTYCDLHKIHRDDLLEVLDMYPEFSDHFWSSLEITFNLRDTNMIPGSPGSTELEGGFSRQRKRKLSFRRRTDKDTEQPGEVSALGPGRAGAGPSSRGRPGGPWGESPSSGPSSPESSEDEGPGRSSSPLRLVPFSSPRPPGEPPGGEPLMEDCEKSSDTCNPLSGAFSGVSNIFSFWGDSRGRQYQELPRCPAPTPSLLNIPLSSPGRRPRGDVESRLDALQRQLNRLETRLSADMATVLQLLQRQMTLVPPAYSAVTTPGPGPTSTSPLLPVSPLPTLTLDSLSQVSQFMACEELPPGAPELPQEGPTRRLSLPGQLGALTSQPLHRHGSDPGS
Description: Compound HCV-3 also was tested for hERG inhibition. Over the concentration range tested (up to 25 micromolar) no dose-response was obtained. […] The control compounds behaved as expected in the assay.

[4] = In vitro metabolic disposition in mouse microsomes; format: in vitro ADME; settings: mouse pooled liver microsomes, 0-45 minutes
Description: (§1) Compound HCV-3 also was subjected to in vitro metabolic disposition in mouse, rat, monkey and human microsomes. The test compound was incubated with pooled liver microsomes, since […] stability in liver microsomes can be predictive of drug stability in vivo. Aliquots were taken at 0, 5, 15, 30 and 45 minutes and quenched immediately. The samples were extracted and analyzed by LC-MS/MS.

κ (KOP) [5] = molecular target: T5, κ (KOP); assay: Cellular functional assay, agonist effect, κ (KOP); format: cell-based; settings: agonist mode
[6] = In vitro metabolic disposition in human microsomes; format: in vitro ADME; settings: human pooled liver microsomes, 0-45 minutes
Description: as §1

[7] = In vitro metabolic disposition in rat microsomes; format: in vitro ADME; settings: rat pooled liver microsomes, 0-45 minutes
Description: as §1

CYP1A2 = molecular target: T6, CYP1A2 (Homo sapiens, UniProt P05177); assay: CYP inhibition, CYP1A2
T6 sequence (P05177 1-516): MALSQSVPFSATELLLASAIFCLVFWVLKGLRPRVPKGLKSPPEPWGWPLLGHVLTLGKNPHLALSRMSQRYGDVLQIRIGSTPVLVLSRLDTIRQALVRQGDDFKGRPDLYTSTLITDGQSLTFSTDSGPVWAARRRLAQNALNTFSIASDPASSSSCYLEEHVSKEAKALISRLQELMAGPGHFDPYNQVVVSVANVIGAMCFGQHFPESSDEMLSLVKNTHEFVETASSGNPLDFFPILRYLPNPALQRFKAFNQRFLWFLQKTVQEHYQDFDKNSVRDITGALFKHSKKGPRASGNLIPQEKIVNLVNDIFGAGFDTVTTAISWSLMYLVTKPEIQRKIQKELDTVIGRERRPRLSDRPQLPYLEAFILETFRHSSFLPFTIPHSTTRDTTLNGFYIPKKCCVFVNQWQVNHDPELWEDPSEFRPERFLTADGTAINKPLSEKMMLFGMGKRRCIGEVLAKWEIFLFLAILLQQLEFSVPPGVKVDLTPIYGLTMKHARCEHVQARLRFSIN

CYP2C19 = CYP2C19 (Homo sapiens, UniProt P33261); assay: CYP inhibition, CYP2C19
Chain of CYP2C19 (P33261 whole entry): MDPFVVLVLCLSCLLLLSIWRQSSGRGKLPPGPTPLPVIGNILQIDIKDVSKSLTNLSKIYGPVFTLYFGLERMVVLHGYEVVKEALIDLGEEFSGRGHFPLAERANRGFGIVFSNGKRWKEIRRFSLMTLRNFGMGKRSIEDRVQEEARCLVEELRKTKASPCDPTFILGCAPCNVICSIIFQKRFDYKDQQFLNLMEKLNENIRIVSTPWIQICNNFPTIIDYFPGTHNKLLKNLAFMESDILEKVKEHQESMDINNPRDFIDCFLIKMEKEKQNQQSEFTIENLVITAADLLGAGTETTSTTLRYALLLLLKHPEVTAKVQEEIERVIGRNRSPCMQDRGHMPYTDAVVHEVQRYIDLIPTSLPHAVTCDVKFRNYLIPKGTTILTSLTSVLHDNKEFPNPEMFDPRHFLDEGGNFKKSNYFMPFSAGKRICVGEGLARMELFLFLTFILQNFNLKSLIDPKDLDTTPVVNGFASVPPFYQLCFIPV

[8] = In vitro metabolic disposition in monkey microsomes; format: in vitro ADME; settings: monkey pooled liver microsomes, 0-45 minutes
Description: as §1

CYP2D6 = CYP2D6 (Homo sapiens, UniProt P10635); assay: CYP inhibition, CYP2D6
Chain of CYP2D6 (P10635 whole entry): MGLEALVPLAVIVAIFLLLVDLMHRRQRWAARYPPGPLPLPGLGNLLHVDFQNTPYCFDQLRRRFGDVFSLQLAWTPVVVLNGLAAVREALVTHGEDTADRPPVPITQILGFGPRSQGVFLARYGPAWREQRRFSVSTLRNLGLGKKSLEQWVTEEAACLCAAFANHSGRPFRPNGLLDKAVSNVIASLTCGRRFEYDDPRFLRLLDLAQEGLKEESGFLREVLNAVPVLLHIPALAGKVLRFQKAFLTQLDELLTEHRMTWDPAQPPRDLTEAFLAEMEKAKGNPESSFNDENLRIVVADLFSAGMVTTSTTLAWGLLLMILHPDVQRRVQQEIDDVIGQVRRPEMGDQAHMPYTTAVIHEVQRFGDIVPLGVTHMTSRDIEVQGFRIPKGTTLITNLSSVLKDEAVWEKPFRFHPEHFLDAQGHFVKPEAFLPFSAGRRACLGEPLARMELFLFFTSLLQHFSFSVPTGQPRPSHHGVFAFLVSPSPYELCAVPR

TA98 = assay: AMES testing, strain TA98; format: cell-based; settings: TA98, up to 1 mg/mL, absence and presence of S9 metabolic activation
Description: (§2) Compound HCV-3 was negative for genotoxicity against both strains used in this assay (TA98 and TA 100) up to a maximum tested concentration of 1 mg/mL, in both the absence and presence of S9 metabolic activation. The assay controls behaved as expected.

CYP3A4 = CYP3A4 (Homo sapiens, UniProt P08684); assay: CYP inhibition, CYP3A4; settings: with either substrate
Chain of CYP3A4 (P08684 whole entry): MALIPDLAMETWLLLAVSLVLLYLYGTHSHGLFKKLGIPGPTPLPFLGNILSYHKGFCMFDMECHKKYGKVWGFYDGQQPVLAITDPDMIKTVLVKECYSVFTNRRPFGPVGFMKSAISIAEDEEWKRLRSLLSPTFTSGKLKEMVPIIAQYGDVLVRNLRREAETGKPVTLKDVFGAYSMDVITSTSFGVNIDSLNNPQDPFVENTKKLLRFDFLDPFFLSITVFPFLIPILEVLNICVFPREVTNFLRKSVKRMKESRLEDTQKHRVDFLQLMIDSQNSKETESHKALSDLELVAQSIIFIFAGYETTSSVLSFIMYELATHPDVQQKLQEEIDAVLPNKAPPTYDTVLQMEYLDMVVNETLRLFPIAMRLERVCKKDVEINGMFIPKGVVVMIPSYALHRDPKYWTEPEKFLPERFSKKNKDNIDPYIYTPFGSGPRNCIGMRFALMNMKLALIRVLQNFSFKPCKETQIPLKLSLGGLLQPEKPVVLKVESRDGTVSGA

TA 100 = assay: AMES testing, strain TA 100; format: cell-based; settings: TA 100, up to 1 mg/mL, absence and presence of S9 metabolic activation
Description: as §2

CYP2C9 = CYP2C9 (Homo sapiens, UniProt P11712); assay: CYP inhibition, CYP2C9
Chain of CYP2C9 (P11712 whole entry): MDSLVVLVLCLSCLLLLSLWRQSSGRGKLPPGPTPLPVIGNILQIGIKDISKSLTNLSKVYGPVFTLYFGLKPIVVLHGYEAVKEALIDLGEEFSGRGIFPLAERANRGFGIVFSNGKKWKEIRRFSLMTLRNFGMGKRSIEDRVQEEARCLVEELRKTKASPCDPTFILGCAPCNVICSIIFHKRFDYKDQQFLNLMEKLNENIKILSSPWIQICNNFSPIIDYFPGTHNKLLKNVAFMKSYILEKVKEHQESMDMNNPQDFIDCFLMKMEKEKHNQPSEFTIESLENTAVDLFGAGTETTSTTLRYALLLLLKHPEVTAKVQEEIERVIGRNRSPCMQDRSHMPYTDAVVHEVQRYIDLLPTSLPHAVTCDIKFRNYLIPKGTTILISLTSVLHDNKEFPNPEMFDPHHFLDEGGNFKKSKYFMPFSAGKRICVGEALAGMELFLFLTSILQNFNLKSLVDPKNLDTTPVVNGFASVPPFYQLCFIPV

μ (MOP) [9] = molecular target: T2, μ (MOP); assay: Cellular functional assay, agonist effect, μ (MOP); format: cell-based; settings: agonist mode
α2B(h) [10] = molecular target: T1, α2B(h); assay: Cellular functional assay, antagonist effect, α2B; format: cell-based; settings: antagonist mode

CCC(=O)NC1CCN(CCc2ccccc2)CC1 [HCV-3, N-(1-phenethylpiperidin-4-yl)propionamide]
% of Control Agonist Response, 1st (α2B(h) [1]; agonist mode, 1.0E−05, first replicate): 9.2%
% of Control Agonist Response, Mean (α2B(h) [1]; agonist mode, 1.0E−05, mean): 7.1%
% of Control Agonist Response, 2nd (α2B(h) [1]; agonist mode, 1.0E−05, second replicate): 5.1%
% of Control Agonist Response (α2B(h) [1]; agonist mode, test concentration 1.0E−05): 7.1%
Agonist Response (% of Control), 1st (μ (MOP) [2]; 1.0E−05, first replicate): 100.1 % of Control
Agonist Response (% of Control), Mean (μ (MOP) [2]; 1.0E−05, mean): 101.0 % of Control
Agonist Response (% of Control), 2nd (μ (MOP) [2]; 1.0E−05, second replicate): 101.8 % of Control
% Inhibition of Control Agonist Response (μ (MOP) [2]; test concentration 1.0E−05): −1%
CYP2B6 inhibition (CYP2B6): No inhibition
efflux ratio (P-gp): 1.48
permeability (MDCK; MDCK assay): highly permeable
CYP2C8 inhibition (CYP2C8): No inhibition
Agonist Response (% of Control), 1st (κ (KOP) [3]; antagonist mode, 1.0E−05, first replicate): 112.4 % of Control
Agonist Response (% of Control), Mean (κ (KOP) [3]; antagonist mode, 1.0E−05, mean): 94.4 % of Control
Agonist Response (% of Control), 2nd (κ (KOP) [3]; antagonist mode, 1.0E−05, second replicate): 76.5 % of Control
% Inhibition of Control Agonist Response (κ (KOP) [3]; antagonist mode, test concentration 1.0E−05): 6%
hERG inhibition category (hERG): weak or no hERG inhibition
IC50 (hERG; concentration range tested up to 25 micromolar): > 25000 nM
inhibition at 25 micromolar (hERG; human, at the top concentration of 25 micromolar): 32.5%
clearance [4]: low clearance
% of Control Agonist Response, 1st (κ (KOP) [5]; 1.0E−05, first replicate): −10.3%
% of Control Agonist Response, Mean (κ (KOP) [5]; 1.0E−05, mean): −4.2%
% of Control Agonist Response, 2nd (κ (KOP) [5]; 1.0E−05, second replicate): 1.8%
% of Control Agonist Response (κ (KOP) [5]; test concentration 1.0E−05): −4.2%
clearance [6]: low clearance
clearance [7]: moderate clearance
CYP1A2 inhibition (CYP1A2): No inhibition
CYP2C19 inhibitor category (CYP2C19): weak CYP2C19 inhibitor
inhibition at 25 micromolar (CYP2C19): 36.4%
clearance [8]: low clearance
CYP2D6 inhibitor category (CYP2D6): moderate CYP2D6 inhibitor
IC50 (CYP2D6): 4200 nM
genotoxicity (TA98): negative
CYP3A4 inhibition (CYP3A4): No inhibition
genotoxicity (TA 100): negative
CYP2C9 inhibition (CYP2C9): No inhibition
% of Control Agonist Response, 1st (μ (MOP) [9]; 1.0E−05, first replicate): 28.1%
% of Control Agonist Response, Mean (μ (MOP) [9]; 1.0E−05, mean): 33.5%
% of Control Agonist Response, 2nd (μ (MOP) [9]; 1.0E−05, second replicate): 38.9%
% of Control Agonist Response (μ (MOP) [9]; test concentration 1.0E−05): 33.5%
Agonist Response (% of Control), 1st (α2B(h) [10]; 1.0E−05, first replicate): 116.8 % of Control
Agonist Response (% of Control), Mean (α2B(h) [10]; 1.0E−05, mean): 127.8 % of Control
Agonist Response (% of Control), 2nd (α2B(h) [10]; 1.0E−05, second replicate): 138.7 % of Control
% Inhibition of Control Agonist Response (α2B(h) [10]; test concentration 1.0E−05): −28%

Cc1cccc([C@H](C)c2c[nH]cn2)c1C [dexmedetc, reference compound]
EC50 (α2B(h) [1]; reference agonist, read-out: Reference EC50 Ref): 13 nM

Oc1ccc2c3c1O[C@H]1c4[nH]c5c(c4C[C@@]4(O)[C@@H](C2)N(CC2CC2)CC[C@]314)C[C@@]1(O)[C@H]2Cc3ccc(O)c4c3[C@@]1(CCN2CC1CC1)[C@H]5O4 [nor-BNI, reference compound]
Kb (κ (KOP) [3]; reference antagonist, read-out: Reference Kb Ref): 0.072 nM

COc1cc2nc(N3CCN(C(=O)c4ccco4)CC3)nc(N)c2cc1OC [prazosin, reference compound]
efflux (control compound) (MDCK; in the absence of Cyclosporin A): showing efflux
efflux (control compound) (MDCK; in the presence of Cyclosporin A): inhibited
